How the values were obtained:
[1] = Plasma protein binding by equilibrium dialysis; format: in vitro ADME, human; details: 37 °C; for PPB (%): 10 µg mL^−1
Experimental: Plasma protein binding was assessed by equilibrium dialysis in a 96-well dialysis block (HTDialysis, Ledyard, CT, USA). Dialysis membranes (12–14 kDa) were soaked in deionised water for at least 60 min. Membranes were soaked overnight at 4 °C in ethanol:water 20:80% v/v and then rinsed with deionised water immediately prior to use. […] Spiked plasma (150 µL) was dialysed against isotonic phosphate buffer (pH 7.4) (150 µL) for 5 h at 37 °C with shaking at 100 rpm. Thermal degradation controls for each test compound were kept at 37 °C and 4 °C. Blank control plasma and buffer were included in the incubation. Following incubation, dialysed plasma samples and thermal degradation controls (50 µL) were added to drug-free buffer (50 µL), and dialysed buffer samples (50 µL) were added to drug-free plasma (50 µL). […] Supernatant (150 µL) was added to 50 µL deionised water and samples were analysed by UPLC-MS/MS as described above. Dialysed buffer from each well was tested for protein contamination using BCA protein assay reagent to determine whether membranes had been compromised.
Bu = Analyte/IS ratio determined in buffer side (2) Fraction unbound, fu=(100−% bound)/100

[2] = Metabolic stability, pooled human liver microsome incubations; details: for Predicted In Vivo Hepatic Clearance, CLH: from pHLM CLint, well-stirred model with plasma fu, Q 21 mL min^−1 kg^−1; for CLint scaled at 0.5 µM: pH 7.4, Intrinsic clearance
Experimental: Total incubation volume was 500 µL. Procedure: Test compound working solutions (50 µM in potassium phosphate buffer (pH 7.4)) were prepared (<1% DMSO). pHLM were thawed and diluted in potassium phosphate buffer (pH 7.4). […] Reactions were quenched in 200 µL ACN spiked with donepezil (IS, 50 ng mL^−1). […] Samples were analysed by UPLC-MS/MS in a 96 deep-well 2 mL plate. Each SCRA was incubated at least in triplicate but additional incubations were carried out across a number of analytical batches, giving greater replication and a greater understanding of system variability. Microsomal scaling factors used for human liver microsome incubations in the literature vary. Intrinsic clearance and predicted in vivo clearance rates calculated using alternative scaling factors found in the literature is provided in Section S6 of the supplementary information, to aid comparison of data between publications.
Equations used for in vitro intrinsic clearance calculation and human in vivo clearance […]
The equations used for in vitro intrinsic clearance calculation and human in vivo clearance estimation […]
Microsomal clearance (HLM incubations) in mL min-1 mg microsomal protein-1 [3]
Intrinsic clearance (whole-liver dimensions) (HLM incubations) in mL min-1 kg-1 [3] CL = k x V x [Liver](g) x SF Eqn. 7 […]
mg g microsomal protein-1 [7]
Intrinsic clearance (whole-liver dimensions) (HHep incubations) in mL min-1 kg-1 [4] CL = k x V x hepatocytes/g liver x [Liver](g) Eqn. 8 […]
Where: hepatocytes/g liver = 107x10^6 cells/g liver
Hepatic clearance in mL min-1 kg-1 [3]
[…] Eqn. 9
Where: Q = hepatic blood flow, 21 mL min-1 kg-1 [9]; fu = fraction unbound (plasma); CLint = […]
Estimated human hepatic extraction ratio [5]
Intrinsic clearance data – pooled human liver microsome incubations […]
table S4-28. Intrinsic clearance and predicted in vivo data calculated using alternative microsomal scaling factors found in the literature – 32 [10] and 45 [11] mg microsomal protein per gram liver – are provided in tables S29 and S30, respectively.

[3] = system: pooled human cryopreserved hepatocytes (pHHeps); assay: Metabolic stability, pooled human cryopreserved hepatocyte incubations; details: for Predicted In Vivo Hepatic Clearance, CLH: from pHHeps CLint, well-stirred model with plasma fu, Q 21 mL min^−1 kg^−1; for T1/2: pHHeps 0.25 million cells mL^−1, 0.5 µM, 37 °C, n ≥ 3 ± SD; for Intrinsic clearance, CLint: alternative hepatocyte cell density 99x10^6 hepatocytes per gram liver
[4] = Short-term plasma stability with and without esterase inhibitors; details: 3 h, 37 °C; for remaining at 3 h, 5 µM: human, pH 7.4, Parent Compound Remaining (%)
Experimental: The pooled plasma used for both plasma stability and plasma binding studies originated from 50 donors, collected as whole blood from donors in the United States at an FDA-approved collection center, processed into plasma by centrifugation and immediately frozen (Innovative Research; Novi, MI, USA) and purchased from Patricell (Nottingham, UK). […] Stock solutions were prepared in DMSO. […] For incubations without inhibitor an equivalent volume of DMSO was included. Plasma mixture was pre-incubated at 37 °C for 5 min. Test compounds (5 µM) and procaine (positive control, 50 µM) were added to pre-warmed plasma mixture containing inhibitors. Incubation volume was 1 mL. Samples were mixed and 80 µL was immediately sampled and quenched into 200 µL ACN spiked with donepezil (internal standard (IS), 50 ng mL^−1). […] Peak area ratio of analyte to IS was used to determine half-lives of test compounds in plasma, both with and without the presence of esterase inhibitors.
The human plasma used was pooled from 50 donors, and was collected as whole blood from donors in
the United States at an FDA-approved collection center, processed into plasma by centrifugation and
The stability of the tested SCRAs, select metabolites and procaine control in pooled human plasma over
inhibitors bis(4-nitrophenyl) phosphate (BNPP) and phenyl methyl sulphonyl fluoride (PMSF) is

[5] = pHLM, scaling factor 32 mg microsomal protein per gram liver
[6] = pHLM, scaling factor 45 mg microsomal protein per gram liver
[7] = pHHeps, 99x10^6 hepatocytes per gram liver

| Compound | PPB (%) ([1]; equilibrium dialysis 5 h) | Predicted In Vivo Hepatic Clearance, CLH [2] [mL/min/kg] | Hepatic extraction ratio, EH ([2]; from pHLM incubations) | % parent compound remaining, Average ([2]; pHLM, 3 min) [%] | % parent compound remaining, Average ([2]; pHLM, 6 min) [%] | % parent compound remaining, Average ([2]; pHLM, 9 min) [%] | % parent compound remaining, Average ([2]; pHLM, 15 min) [%] | % parent compound remaining, Average ([2]; pHLM, 30 min) [%] | Microsomal Intrinsic Clearance, CLint micr ([2]; pHLM, n ≥ 3 ± SD) | Hepatic extraction ratio, EH [2, 5] | Predicted in vivo hepatic clearance, CLH [2, 5] [mL/min/kg] | Predicted in vivo hepatic clearance, CLH [2, 6] [mL/min/kg] | Predicted In Vivo Hepatic Clearance, CLH [3] [mL/min/kg] | Hepatic extraction ratio, EH ([3]; from pHHeps incubations) | T1/2 [3] [min] | Hepatic extraction ratio, EH [3, 7] | Predicted in vivo hepatic clearance, CLH [3, 7] [mL/min/kg] | % parent compound remaining, Average ([3]; pHHeps, 3 min) [%] | % parent compound remaining, Average ([3]; pHHeps, 6 min) [%] | % parent compound remaining, Average ([3]; pHHeps, 9 min) [%] | other results |
| --- | --- | --- | --- | --- | --- | --- | --- | --- | --- | --- | --- | --- | --- | --- | --- | --- | --- | --- | --- | --- | --- |
| COC(=O)[C@@H](NC(=O)c1nn(CCCCF)c2ccccc12)C(C)(C)C [(S)-4F-MDMB-BINACA (4), methyl 2-[1-(4-fluorobutyl)-1H-indazole-3-carboxamido]-3,3-dimethylbutanoate] | 93.9 ± 0.28 | 7.51 ± 0.88 | 0.36 ± 0.042 | 74.9 | 63.6 | 50.4 | 32.7 | 17.0 | 0.143 ± 0.025 mL min^−1 mg Microsomal Protein^−1 | 0.25 ± 0.034 | 5.33 | 6.78 | 12.08 ± 0.23 | 0.58 ± 0.011 | 16 ± 0.74 | 0.56 ± 0.011 | 11.68 ± 0.24 | 82.3 | 73.7 | 69.2 | fraction unbound at 5 h, 10 µg mL^−1 ([1]; human, pooled human plasma, pH 7.4, equilibrium dialysis 5 h, plasma, read-out: Fraction Unbound (fu)): 0.061 ± 0.0028; CLint scaled at 0.5 µM ([2]; human, microsomes, pHLM, alternative microsomal scaling factor 32 mg microsomal protein per gram liver): 118 mL/min/kg; CLint scaled at 0.5 µM ([2]; human, microsomes, pHLM, alternative microsomal scaling factor 45 mg microsomal protein per gram liver): 165 mL/min/kg; half-life at 0.5 µM ([2]; human, microsomes, pH 7.4, T1/2 (min), pHLM 0.5 mg mL^−1, 0.5 µM, NADPH, 37 °C, n ≥ 3 ± SD): 9.9 ± 1.9 min; % parent compound remaining, Average ([3]; pHHeps, 15 min): 53.9%; % parent compound remaining, Average ([3]; pHHeps, 30 min): 25.8%; % parent compound remaining, Average ([3]; pHHeps, 45 min): 12.5%; % parent compound remaining, Average ([3]; pHHeps, 60 min): 6.2%; Intrinsic clearance, CLint ([3]; pHHeps): 432 ± 20.0 mL/min/kg; remaining at 3 h, 5 µM ([4]; Esterase Inhibitors, pH 7.4, BNPP and PMSF 500 µM each): 96 ± 2.9%; remaining at 3 h, 5 µM ([4]; plasma, No Esterase Inhibitors, pH 7.4, pooled human plasma): 93.1 ± 5.1% |
| C=CCCCn1cc(C(=O)N[C@@H](C(=O)OC)C(C)(C)C)c2ccccc21 [(R)-MDMB-4en-PICA (12), methyl 3,3-dimethyl-2-[1-(pent-4-en-1-yl)-1H-indole-3-carboxamido]butanoate] | 94.7 ± 1.11 | 9.81 ± 0.75 | 0.47 ± 0.036 | 67.7 | 47.7 | 31.7 | 13.8 | 1.7 | 0.260 ± 0.040 mL min^−1 mg Microsomal Protein^−1 | 0.35 ± 0.033 | 7.32 ± 0.70 | 9.01 ± 0.74 | 6.42 ± 0.62 | 0.31 ± 0.029 | 44 ± 6.3 | 0.29 ± 0.028 | 6.08 ± 0.60 | 90.1 | 81.5 | 83.7 | Fraction Unbound (fu) ([1]; equilibrium dialysis 5 h, plasma): 0.053 ± 0.0111; T1/2 ([2]; pHLM 0.5 mg mL^−1, 0.5 µM, NADPH, 37 °C, n ≥ 3 ± SD): 5.4 ± 0.74 min; Intrinsic clearance, CLint ([2]; pHLM, alternative microsomal scaling factor 32 mg microsomal protein per gram liver): 213 mL/min/kg; Intrinsic clearance, CLint ([2]; pHLM, alternative microsomal scaling factor 45 mg microsomal protein per gram liver): 300 mL/min/kg; Hepatic extraction ratio, EH [2, 6]: 0.43 ± 0.035; % parent compound remaining, Average ([3]; pHHeps, 15 min): 79.3%; % parent compound remaining, Average ([3]; pHHeps, 30 min): 61.6%; % parent compound remaining, Average ([3]; pHHeps, 45 min): 46.4%; % parent compound remaining, Average ([3]; pHHeps, 60 min): 40.6%; Intrinsic clearance, CLint ([3]; pHHeps): 162 ± 22.16 mL/min/kg; Parent Compound Remaining (%), Esterase Inhibitors ([4]; pH 7.4, BNPP and PMSF 500 µM each): 87.7 ± 11.0%; Parent Compound Remaining (%), No Esterase Inhibitors ([4]; pH 7.4, pooled human plasma): 90.3 ± 5.4% |

Reference: article PMC7961380, “A Systematic Study of the In Vitro Pharmacokinetics and Estimated Human In Vivo Clearance of Indole and Indazole-3-Carboxamide Synthetic Cannabinoid Receptor Agonists Detected on the Illicit Drug Market” (Molecules, 2021)
